{"source": "patent US12162858B2", "about": "“Quinoline derivatives as inhibitors of AXL/MER RTK and CSF1R” (QURIENT CO., LTD., priority 2018, dated 2024)", "key": {"CSF1R": {"biological_target": "CSF1R (Homo sapiens, UniProt P07333)", "sequence (P07333 20-972)": "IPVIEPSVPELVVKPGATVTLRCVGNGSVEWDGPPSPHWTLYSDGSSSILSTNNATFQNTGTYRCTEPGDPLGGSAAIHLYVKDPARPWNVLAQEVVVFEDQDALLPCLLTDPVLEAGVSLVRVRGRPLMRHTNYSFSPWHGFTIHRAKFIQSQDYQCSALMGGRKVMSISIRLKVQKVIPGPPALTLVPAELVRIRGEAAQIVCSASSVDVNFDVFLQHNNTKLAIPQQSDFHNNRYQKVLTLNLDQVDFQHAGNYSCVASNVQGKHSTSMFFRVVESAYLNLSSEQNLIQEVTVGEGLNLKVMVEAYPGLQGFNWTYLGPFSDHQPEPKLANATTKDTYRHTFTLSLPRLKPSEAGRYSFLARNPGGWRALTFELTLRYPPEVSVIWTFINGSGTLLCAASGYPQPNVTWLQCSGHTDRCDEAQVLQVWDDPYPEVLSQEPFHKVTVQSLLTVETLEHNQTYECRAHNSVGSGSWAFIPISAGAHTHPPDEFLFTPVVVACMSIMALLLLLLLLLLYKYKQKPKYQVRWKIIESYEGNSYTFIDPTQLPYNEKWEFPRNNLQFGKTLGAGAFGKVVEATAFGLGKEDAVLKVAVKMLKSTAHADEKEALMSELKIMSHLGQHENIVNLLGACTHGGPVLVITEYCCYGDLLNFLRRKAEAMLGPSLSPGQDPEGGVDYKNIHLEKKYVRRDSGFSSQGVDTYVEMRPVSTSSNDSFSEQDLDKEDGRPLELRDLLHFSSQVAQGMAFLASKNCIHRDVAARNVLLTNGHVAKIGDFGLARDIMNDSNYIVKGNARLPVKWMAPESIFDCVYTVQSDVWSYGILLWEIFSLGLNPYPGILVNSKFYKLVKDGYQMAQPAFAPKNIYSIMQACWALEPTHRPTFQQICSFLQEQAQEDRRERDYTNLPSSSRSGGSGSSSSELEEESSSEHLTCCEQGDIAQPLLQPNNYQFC", "assay": "KINOMEscan competition binding assay for CSF1R", "set-up": "DNA tag for qPCR (not a peptide); host or cells: E. coli/T7 phage or HEK-293", "in_short": "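Values are either % inhibition at 0.1 uM, relative to DMSO (100% Ctrl) and a control compound (0% Ctrl), or Kd from an 11-point 3-fold series fitted with Hill slope −1. DNA-tagged kinase binds immobilized ligand beads with compound for 1 h at room temperature, and eluted kinase is measured by qPCR.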"}, "CSF1R (M-NFS-60 cells)": {"tested_on": "CSF1R (M-NFS-60 cells)", "assay": "Cell Titer-Glo viability assay using M-NFS-60 cells", "format": "cell-based", "details": "Mus musculus, read-out: Cellular CSF1R activity by M-NFS-60 viability assay (IC50 activity range)", "in_short": "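M-NFS-60 cells grown with 62 ng/ml recombinant human M-CSF, seeded at 2×10^5 cells/well and incubated at 37 °C/5% CO2. Compounds given as 3-fold serial dilutions (10 doses); viability read by CellTiter-Glo luminescence, sigmoidal dose-response fit.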"}, "CSF1R (Ba/F3 cells)": {"biological_target": "CSF1R (Ba/F3 cells) (Homo sapiens, UniProt P07333)", "sequence (P07333 whole entry, change not shown)": "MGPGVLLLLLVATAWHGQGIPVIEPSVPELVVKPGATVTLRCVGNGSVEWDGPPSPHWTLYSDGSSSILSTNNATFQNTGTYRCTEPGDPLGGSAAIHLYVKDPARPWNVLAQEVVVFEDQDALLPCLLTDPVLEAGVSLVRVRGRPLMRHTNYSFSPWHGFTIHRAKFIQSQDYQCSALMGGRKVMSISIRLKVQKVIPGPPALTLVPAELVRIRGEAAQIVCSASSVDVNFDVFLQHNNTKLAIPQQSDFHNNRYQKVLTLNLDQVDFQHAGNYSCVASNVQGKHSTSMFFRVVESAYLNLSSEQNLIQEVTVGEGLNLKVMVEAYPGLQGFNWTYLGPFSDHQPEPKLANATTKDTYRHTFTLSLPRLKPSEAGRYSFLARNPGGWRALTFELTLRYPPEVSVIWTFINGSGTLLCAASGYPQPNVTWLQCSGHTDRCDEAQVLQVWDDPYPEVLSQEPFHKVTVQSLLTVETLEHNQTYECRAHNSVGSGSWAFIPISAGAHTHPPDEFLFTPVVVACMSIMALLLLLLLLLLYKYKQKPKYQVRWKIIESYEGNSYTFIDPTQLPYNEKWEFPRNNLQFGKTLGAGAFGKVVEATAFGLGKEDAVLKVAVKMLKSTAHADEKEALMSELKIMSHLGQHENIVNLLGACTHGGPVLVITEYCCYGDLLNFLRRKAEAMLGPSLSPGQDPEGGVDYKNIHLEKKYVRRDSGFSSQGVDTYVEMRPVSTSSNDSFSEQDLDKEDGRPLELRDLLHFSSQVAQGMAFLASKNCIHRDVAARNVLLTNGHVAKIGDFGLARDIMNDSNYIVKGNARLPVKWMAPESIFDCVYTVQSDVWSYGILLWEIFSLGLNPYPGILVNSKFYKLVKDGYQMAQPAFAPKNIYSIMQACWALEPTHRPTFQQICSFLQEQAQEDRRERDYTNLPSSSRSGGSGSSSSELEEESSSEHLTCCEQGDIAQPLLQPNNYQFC", "assay": "BaF3 viability assay, CSF1R-dependent cells", "format": "cell-based", "details": "read-out: Cellular CSF1R activity by Ba/F3 assay (IC50)", "text": "In this system, IL-3-dependent Ba/F3 cells are modified to express an activated recombinant kinase (in the present case Axl, Mer and CSF1R). Following removal of IL-3, the modified cells are dependent on the activity of the recombinant kinase for survival and proliferation. Inhibition of such kinase(s) through test compounds reduces survival and proliferation of the cells.\nCell lines were maintained in growth media (GM) consisting of RPMI 1640 supplemented with 10% FBS. Cells in logarithmic-phase growth were harvested and 5,000 cells were distributed into each well of a 384-well plate in 50 μl GM. Parental cells (or experimental assays where specified) were further supplemented with 2 ng/ml IL-3 to support cell growth and survival. Fifty nanoliters of the indicated reference standard or experimental compound were added to appropriate wells (in duplicate) and the cells were cultured for 48 h at 37° C./5% CO2. Viability was determined by adding 10 μl Cell Titer Glo and measuring luminescence, which is reported as relative light units (RLU) measured in counts per second. The following calculations and formulas are used for data analysis using GraphPad Prism software: The curve fitting was made using the Dose response curves-Inhibition."}, "[1]": {"details": "read-out: CSF1R kinase binding activity, Percent (%) inhibition"}, "[2]": {"details": "read-out: CSF1R kinase binding activity, Range"}}, "note": "Where two headings read alike, the source gives them in different places."}
{"smiles": "COc1cc2nccc(Oc3ccc(NC(=O)c4nn(CCN)cc4OCC(F)(F)F)cc3C)c2cc1OC", "note": "[Compound 82]", "values": [{"measurement": "inhibition at 0.1 µM", "setting": "CSF1R; [1]", "value": 35, "unit": "%"}, {"measurement": "inhibition at 0.1 µM", "setting": "CSF1R; [2]", "value": "< 50", "unit": "%"}, {"measurement": "IC50", "setting": "CSF1R (M-NFS-60 cells)", "value": "1000 to 10000", "unit": "nM"}]}
{"smiles": "COc1cc2nccc(Oc3ccc(NC(=O)c4nn(C5CC5)cc4OCC(F)(F)F)nc3)c2cc1OC", "note": "[Compound 5]", "values": [{"measurement": "inhibition at 0.1 µM", "setting": "CSF1R; [1]", "value": 97, "unit": "%"}, {"measurement": "inhibition at 0.1 µM", "setting": "CSF1R; [2]", "value": "≥ 80", "unit": "%"}, {"measurement": "Kd", "setting": "CSF1R; read-out: CSF1R kinase binding activity (Kd)", "value": "< 100", "unit": "nM"}, {"measurement": "GI50", "setting": "CSF1R (Ba/F3 cells)", "value": "< 1000", "unit": "nM"}, {"measurement": "IC50", "setting": "CSF1R (M-NFS-60 cells)", "value": "< 1000", "unit": "nM"}]}
{"smiles": "COc1cc2nccc(Oc3ccc(NC(=O)c4nn(C5CCOC5)cc4OCC(F)(F)F)cc3C)c2cc1OC", "note": "(centres unmarked) [Compound 85]", "values": [{"measurement": "inhibition at 0.1 µM", "setting": "CSF1R; [1]", "value": 78, "unit": "%"}, {"measurement": "inhibition at 0.1 µM", "setting": "CSF1R; [2]", "value": "50 to 80", "unit": "%"}, {"measurement": "IC50", "setting": "CSF1R (M-NFS-60 cells)", "value": "1000 to 10000", "unit": "nM"}]}
{"smiles": "COc1cc2nccc(Oc3ccc(NC(=O)c4nn(C5CCOCC5)cc4OCC(F)(F)F)nc3)c2cc1OC", "note": "[Compound 90]", "values": [{"measurement": "inhibition at 0.1 µM", "setting": "CSF1R; [1]", "value": 95, "unit": "%"}, {"measurement": "inhibition at 0.1 µM", "setting": "CSF1R; [2]", "value": "≥ 80", "unit": "%"}, {"measurement": "IC50", "setting": "CSF1R (M-NFS-60 cells)", "value": "< 1000", "unit": "nM"}]}
{"smiles": "COc1cc2nccc(Oc3ccc(NC(=O)c4nn(CC(C)C)cc4OCC(F)(F)F)cc3)c2cc1OC", "note": "[Compound 87]", "values": [{"measurement": "inhibition at 0.1 µM", "setting": "CSF1R; [1]", "value": 71, "unit": "%"}, {"measurement": "inhibition at 0.1 µM", "setting": "CSF1R; [2]", "value": "50 to 80", "unit": "%"}, {"measurement": "IC50", "setting": "CSF1R (M-NFS-60 cells)", "value": "1000 to 10000", "unit": "nM"}]}
{"smiles": "COc1cc2nccc(Oc3ccc(NC(=O)c4nn(CC(C)O)cc4OCC(F)(F)F)cc3F)c2cc1OC", "note": "(centres unmarked) [Compound 80]", "values": [{"measurement": "inhibition at 0.1 µM", "setting": "CSF1R; [1]", "value": 64, "unit": "%"}, {"measurement": "inhibition at 0.1 µM", "setting": "CSF1R; [2]", "value": "50 to 80", "unit": "%"}, {"measurement": "IC50", "setting": "CSF1R (M-NFS-60 cells)", "value": "1000 to 10000", "unit": "nM"}]}
{"smiles": "COCCn1cc(OCC(F)(F)F)c(C(=O)Nc2ccc(Oc3ccnc4cc(OC)c(OC)cc34)c(C)c2)n1", "note": "[Compound 84]", "values": [{"measurement": "inhibition at 0.1 µM", "setting": "CSF1R; [1]", "value": 97, "unit": "%"}, {"measurement": "inhibition at 0.1 µM", "setting": "CSF1R; [2]", "value": "≥ 80", "unit": "%"}, {"measurement": "IC50", "setting": "CSF1R (M-NFS-60 cells)", "value": "1000 to 10000", "unit": "nM"}]}
{"smiles": "COc1cc2nccc(Oc3ccc(NC(=O)c4nn(CCC5CCCC5)cc4OCC(F)(F)F)nc3)c2cc1OC", "note": "[Compound 93]", "values": [{"measurement": "inhibition at 0.1 µM", "setting": "CSF1R; [1]", "value": 89, "unit": "%"}, {"measurement": "inhibition at 0.1 µM", "setting": "CSF1R; [2]", "value": "≥ 80", "unit": "%"}, {"measurement": "IC50", "setting": "CSF1R (M-NFS-60 cells)", "value": "< 1000", "unit": "nM"}]}
{"smiles": "COc1cc2nccc(Oc3ccc(NC(=O)c4nn(C5CCNC5)cc4OCC(F)(F)F)cc3C)c2cc1OC", "note": "(centres unmarked) [Compound 81]", "values": [{"measurement": "inhibition at 0.1 µM", "setting": "CSF1R; [1]", "value": 46, "unit": "%"}, {"measurement": "inhibition at 0.1 µM", "setting": "CSF1R; [2]", "value": "< 50", "unit": "%"}, {"measurement": "IC50", "setting": "CSF1R (M-NFS-60 cells)", "value": "1000 to 10000", "unit": "nM"}]}
{"smiles": "COc1cc2nccc(Oc3ccc(NC(=O)c4nn(C5CCNC5)cc4OCC(F)(F)F)cc3F)c2cc1OC", "note": "(centres unmarked) [Compound 78]", "values": [{"measurement": "inhibition at 0.1 µM", "setting": "CSF1R; [1]", "value": 11, "unit": "%"}, {"measurement": "inhibition at 0.1 µM", "setting": "CSF1R; [2]", "value": "< 50", "unit": "%"}, {"measurement": "IC50", "setting": "CSF1R (M-NFS-60 cells)", "value": "1000 to 10000", "unit": "nM"}]}
{"smiles": "COc1cc2nccc(Oc3ccc(NC(=O)c4nn(C5CCN(C)C5)cc4OCC(F)(F)F)nc3)c2cc1OC", "note": "(centres unmarked) [Compound 91]", "values": [{"measurement": "inhibition at 0.1 µM", "setting": "CSF1R; [1]", "value": 99, "unit": "%"}, {"measurement": "inhibition at 0.1 µM", "setting": "CSF1R; [2]", "value": "≥ 80", "unit": "%"}, {"measurement": "IC50", "setting": "CSF1R (M-NFS-60 cells)", "value": "< 1000", "unit": "nM"}]}
{"smiles": "COc1cc2nccc(Oc3ccc(NC(=O)c4nn(C5CCN(C)C5)cc4OCC(F)(F)F)c(F)c3)c2cc1OC", "note": "(centres unmarked) [Compound 94]", "values": [{"measurement": "inhibition at 0.1 µM", "setting": "CSF1R; [1]", "value": 65, "unit": "%"}, {"measurement": "inhibition at 0.1 µM", "setting": "CSF1R; [2]", "value": "50 to 80", "unit": "%"}, {"measurement": "IC50", "setting": "CSF1R (M-NFS-60 cells)", "value": "1000 to 10000", "unit": "nM"}]}
{"smiles": "COc1cc2nccc(Oc3ccc(NC(=O)c4nn(C5CCOC5)cc4OCC(F)(F)F)c(F)c3)c2cc1OC", "note": "(centres unmarked) [Compound 77]", "values": [{"measurement": "inhibition at 0.1 µM", "setting": "CSF1R; [1]", "value": 76, "unit": "%"}, {"measurement": "inhibition at 0.1 µM", "setting": "CSF1R; [2]", "value": "50 to 80", "unit": "%"}, {"measurement": "IC50", "setting": "CSF1R (M-NFS-60 cells)", "value": "1000 to 10000", "unit": "nM"}]}
{"smiles": "COc1cc2nccc(Oc3ccc(NC(=O)c4nn(CC(C)O)cc4OCC(F)(F)F)cc3C)c2cc1OC", "note": "(centres unmarked) [Compound 83]", "values": [{"measurement": "inhibition at 0.1 µM", "setting": "CSF1R; [1]", "value": 97, "unit": "%"}, {"measurement": "inhibition at 0.1 µM", "setting": "CSF1R; [2]", "value": "≥ 80", "unit": "%"}, {"measurement": "IC50", "setting": "CSF1R (M-NFS-60 cells)", "value": "1000 to 10000", "unit": "nM"}]}
{"smiles": "COc1cc2nccc(Oc3ccc(NC(=O)c4nn(CC(C)O)cc4OCC(F)(F)F)cc3)c2cc1OC", "note": "(centres unmarked) [Compound 89]", "values": [{"measurement": "inhibition at 0.1 µM", "setting": "CSF1R; [1]", "value": 56, "unit": "%"}, {"measurement": "inhibition at 0.1 µM", "setting": "CSF1R; [2]", "value": "50 to 80", "unit": "%"}, {"measurement": "IC50", "setting": "CSF1R (M-NFS-60 cells)", "value": "1000 to 10000", "unit": "nM"}]}
{"smiles": "COc1cc2nccc(Oc3ccc(NC(=O)c4nn(CC5COC5)cc4OCC(F)(F)F)c(F)c3)c2cc1OC", "note": "[Compound 95]", "values": [{"measurement": "inhibition at 0.1 µM", "setting": "CSF1R; [1]", "value": 61, "unit": "%"}, {"measurement": "inhibition at 0.1 µM", "setting": "CSF1R; [2]", "value": "50 to 80", "unit": "%"}, {"measurement": "IC50", "setting": "CSF1R (M-NFS-60 cells)", "value": "1000 to 10000", "unit": "nM"}]}
{"smiles": "COc1cc2nccc(Oc3ccc(NC(=O)c4nn(CCN)cc4OCC(F)(F)F)cc3F)c2cc1OC", "note": "[Compound 79]", "values": [{"measurement": "inhibition at 0.1 µM", "setting": "CSF1R; [1]", "value": 12, "unit": "%"}, {"measurement": "inhibition at 0.1 µM", "setting": "CSF1R; [2]", "value": "< 50", "unit": "%"}, {"measurement": "IC50", "setting": "CSF1R (M-NFS-60 cells)", "value": "1000 to 10000", "unit": "nM"}]}
{"smiles": "COc1cc2nccc(Oc3ccc(NC(=O)c4nn(C5CCNC5)cc4OCC(F)(F)F)cc3)c2cc1OC", "note": "(centres unmarked) [Compound 86]", "values": [{"measurement": "inhibition at 0.1 µM", "setting": "CSF1R; [1]", "value": 11, "unit": "%"}, {"measurement": "inhibition at 0.1 µM", "setting": "CSF1R; [2]", "value": "< 50", "unit": "%"}, {"measurement": "IC50", "setting": "CSF1R (M-NFS-60 cells)", "value": "1000 to 10000", "unit": "nM"}]}
{"smiles": "COc1cc2nccc(Oc3ccc(NC(=O)c4nn(CCN)cc4OCC(F)(F)F)cc3)c2cc1OC", "note": "[Compound 88]", "values": [{"measurement": "inhibition at 0.1 µM", "setting": "CSF1R; [1]", "value": 21, "unit": "%"}, {"measurement": "inhibition at 0.1 µM", "setting": "CSF1R; [2]", "value": "< 50", "unit": "%"}, {"measurement": "IC50", "setting": "CSF1R (M-NFS-60 cells)", "value": "1000 to 10000", "unit": "nM"}]}
